Measured values reported in the supplement of paper PMC10307832.

Experiments:
Test in all cases: relative viability (nuclei count vs DMSO), 5 days (fraction); higher = more cells survive
HCC-78 = test system: HCC-78
Summary of the method: (§1)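 After 5 days of treatment, lung cancer cells in 1536-well plates were fixed and stained in a single step (final 0.05% Triton X-100, 1% formaldehyde, 1 ug/ml Hoechst) and their nuclei counted on 4× images. Treatment had been applied by pin tool the day after seeding as one drug alone or as a fixed anchor-drug dose with five library-drug doses (not always all listed) in √10 steps. Relative viability is the nuclei count of treated wells divided by that of vehicle wells, and values are medians of duplicate plates.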

SW 1573 = test system: SW 1573
Summary of the method: as §1

RERF-LC-KJ = test system: RERF-LC-KJ
Summary of the method: as §1

NCI-H1755 = test system: NCI-H1755
Summary of the method: as §1

NCI-H1975 = test system: NCI-H1975
Summary of the method: as §1

NCI-H2347 = test system: NCI-H2347
Summary of the method: as §1

PC-3 [JPC-3] = test system: PC-3 [JPC-3]
Summary of the method: as §1

NCI-H2126 = test system: NCI-H2126
Summary of the method: as §1

NCI-H647 = test system: NCI-H647
Summary of the method: as §1

LC-2-ad = test system: LC-2-ad
Summary of the method: as §1

HCC-15 = test system: HCC-15
Summary of the method: as §1

A-427 = test system: A-427
Summary of the method: as §1

SK-LU-1 = test system: SK-LU-1
Summary of the method: as §1

HOP-62 = test system: HOP-62
Summary of the method: as §1

NCI-H358 = test system: NCI-H358
Summary of the method: as §1

LXF-289 = test system: LXF-289
Summary of the method: as §1

NCI-H1915 = test system: NCI-H1915
Summary of the method: as §1

NCI-H1792 = test system: NCI-H1792
Summary of the method: as §1

NCI-H2228 = test system: NCI-H2228
Summary of the method: as §1

NCI-H1734 = test system: NCI-H1734
Summary of the method: as §1

Question: What does the source list for `O=c1cc(-c2cccc3c2Sc2ccccc2S3)oc(N2CCOCC2)c1` + CS(=O)(=O)N1CCN(Cc2cc3nc(-c4cccc5[nH]ncc45)nc(N4CCOCC4)c3s2)CC1 [Pictilisib] (partner 1 µM)?
Answer: relative viability (HCC-78; first compound 0.08 µM): 0.182; relative viability (HCC-78; first compound 0.253 µM): 0.199; relative viability (HCC-78; first compound 0.8 µM): 0.207; relative viability (HCC-78; first compound 2.53 µM): 0.196; relative viability (HCC-78; first compound 8 µM): 0.255; relative viability (SW 1573; first compound 0.08 µM): 0.539; relative viability (SW 1573; first compound 0.253 µM): 0.554; relative viability (SW 1573; first compound 0.8 µM): 0.586; relative viability (SW 1573; first compound 2.53 µM): 0.556; relative viability (SW 1573; first compound 8 µM): 0.597; relative viability (RERF-LC-KJ; first compound 0.08 µM): 0.43; relative viability (RERF-LC-KJ; first compound 0.253 µM): 0.608; relative viability (RERF-LC-KJ; first compound 0.8 µM): 0.622; relative viability (RERF-LC-KJ; first compound 2.53 µM): 0.571; relative viability (RERF-LC-KJ; first compound 8 µM): 0.521; relative viability (NCI-H1755; first compound 0.08 µM): 0.369; relative viability (NCI-H1755; first compound 0.253 µM): 0.489; relative viability (NCI-H1755; first compound 0.8 µM): 0.481; relative viability (NCI-H1755; first compound 2.53 µM): 0.431; relative viability (NCI-H1755; first compound 8 µM): 0.444; relative viability (NCI-H1975; first compound 0.08 µM): 0.276; relative viability (NCI-H1975; first compound 0.253 µM): 0.311; relative viability (NCI-H1975; first compound 0.8 µM): 0.236; relative viability (NCI-H1975; first compound 2.53 µM): 0.272; relative viability (NCI-H1975; first compound 8 µM): 0.269; relative viability (NCI-H2347; first compound 0.08 µM): 0.633; relative viability (NCI-H2347; first compound 0.253 µM): 0.952; relative viability (NCI-H2347; first compound 0.8 µM): 0.567; relative viability (NCI-H2347; first compound 2.53 µM): 0.733; relative viability (NCI-H2347; first compound 8 µM): 0.476; relative viability (PC-3 [JPC-3]; first compound 0.08 µM): 0.694; relative viability (PC-3 [JPC-3]; first compound 0.253 µM): 0.761; relative viability (PC-3 [JPC-3]; first compound 0.8 µM): 0.644; relative viability (PC-3 [JPC-3]; first compound 2.53 µM): 0.662; relative viability (PC-3 [JPC-3]; first compound 8 µM): 0.863; relative viability (NCI-H2126; first compound 0.08 µM): 0.454; relative viability (NCI-H2126; first compound 0.253 µM): 0.509; relative viability (NCI-H2126; first compound 0.8 µM): 0.412; relative viability (NCI-H2126; first compound 2.53 µM): 0.452; relative viability (NCI-H2126; first compound 8 µM): 0.56; relative viability (NCI-H647; first compound 0.08 µM): 0.341; relative viability (NCI-H647; first compound 0.253 µM): 0.499; relative viability (NCI-H647; first compound 0.8 µM): 0.365; relative viability (NCI-H647; first compound 8 µM): 0.603; relative viability (LC-2-ad; first compound 0.08 µM): 0.472; relative viability (LC-2-ad; first compound 0.253 µM): 0.545; relative viability (LC-2-ad; first compound 0.8 µM): 0.465; relative viability (LC-2-ad; first compound 2.53 µM): 0.432; relative viability (LC-2-ad; first compound 8 µM): 0.425; relative viability (HCC-15; first compound 0.08 µM): 0.732; relative viability (HCC-15; first compound 0.253 µM): 0.858; relative viability (HCC-15; first compound 0.8 µM): 0.797; relative viability (HCC-15; first compound 2.53 µM): 0.674; relative viability (HCC-15; first compound 8 µM): 0.793; relative viability (A-427; first compound 0.08 µM): 0.818; relative viability (A-427; first compound 0.253 µM): 0.678; relative viability (A-427; first compound 0.8 µM): 0.634; relative viability (A-427; first compound 2.53 µM): 0.623; relative viability (A-427; first compound 8 µM): 0.973; relative viability (SK-LU-1; first compound 0.08 µM): 0.616; relative viability (SK-LU-1; first compound 0.253 µM): 0.515; relative viability (SK-LU-1; first compound 0.8 µM): 0.594; relative viability (SK-LU-1; first compound 2.53 µM): 0.541; relative viability (SK-LU-1; first compound 8 µM): 0.596; relative viability (HOP-62; first compound 0.08 µM): 0.782; relative viability (HOP-62; first compound 0.253 µM): 1.02; relative viability (HOP-62; first compound 0.8 µM): 0.89; relative viability (HOP-62; first compound 2.53 µM): 0.831; relative viability (HOP-62; first compound 8 µM): 0.779; relative viability (NCI-H358; first compound 0.08 µM): 0.311; relative viability (NCI-H358; first compound 0.253 µM): 0.328; relative viability (NCI-H358; first compound 0.8 µM): 0.351; relative viability (NCI-H358; first compound 2.53 µM): 0.269; relative viability (NCI-H358; first compound 8 µM): 0.33; relative viability (LXF-289; first compound 0.08 µM): 0.777; relative viability (LXF-289; first compound 0.253 µM): 0.791; relative viability (LXF-289; first compound 0.8 µM): 0.896; relative viability (LXF-289; first compound 2.53 µM): 0.747; relative viability (LXF-289; first compound 8 µM): 0.849; relative viability (NCI-H1915; first compound 0.08 µM): 0.821; relative viability (NCI-H1915; first compound 0.253 µM): 1.01; relative viability (NCI-H1915; first compound 0.8 µM): 0.904; relative viability (NCI-H1915; first compound 2.53 µM): 0.828; relative viability (NCI-H1915; first compound 8 µM): 0.976; relative viability (NCI-H1792; first compound 0.253 µM): 0.257; relative viability (NCI-H1792; first compound 0.8 µM): 0.223; relative viability (NCI-H1792; first compound 2.53 µM): 0.277; relative viability (NCI-H1792; first compound 8 µM): 0.238; relative viability (NCI-H2228; first compound 0.08 µM): 0.434; relative viability (NCI-H2228; first compound 0.253 µM): 0.424; relative viability (NCI-H2228; first compound 0.8 µM): 0.296; relative viability (NCI-H2228; first compound 2.53 µM): 0.484; relative viability (NCI-H2228; first compound 8 µM): 0.378; relative viability (NCI-H1734; first compound 0.08 µM): 0.443; relative viability (NCI-H1734; first compound 0.253 µM): 0.564; relative viability (NCI-H1734; first compound 0.8 µM): 0.465; relative viability (NCI-H1734; first compound 2.53 µM): 0.351; relative viability (NCI-H1734; first compound 8 µM): 0.578
